Results reported in ChEMBL document CHEMBL1147197, “Studies on logP, retention time and QSAR of 2-substituted phenylnitronyl nitroxides as free radical scavengers” (Eur J Med Chem, 2007).

Tests used:
PC-12 [1] = experiment: Nitric oxide radical scavenging activity in PC12 cells by survival assay; assay type: functional, cell-based, Homo sapiens; conditions: Rattus norvegicus
PC-12 [2] = experiment: Hydrogen peroxide radical scavenging activity in PC12 cell by survival assay; assay type: functional, cell-based, Homo sapiens; conditions: Rattus norvegicus
PC-12 [3] = experiment: Hydroxyl radical scavenging activity in PC12 cell by survival assay; assay type: functional, cell-based, Homo sapiens; conditions: Rattus norvegicus
[4] = Partition coefficient, log P of the compound; assay type: physicochemical; conditions: octanol/water
[5] = Retention time, log K of the compound; assay type: ADME

| Structure (SMILES) | EC50 (PC-12 [1]; read-out: EC50) [µM] | EC50 (PC-12 [1]; read-out: Log EC50 (converted)) [µM] | EC50 (PC-12 [2]; read-out: EC50) [µM] | EC50 (PC-12 [2]; read-out: Log EC50 (converted)) [µM] | EC50 (PC-12 [3]; read-out: EC50) [µM] | EC50 (PC-12 [3]; read-out: Log EC50 (converted)) [µM] | logP [4] | log K [5] |
| --- | --- | --- | --- | --- | --- | --- | --- | --- |
| CN(C)c1ccc(C2=[N+]([O-])C(C)(C)C(C)(C)N2[O])cc1 | 9.12 | 9.12 | 29 | 28.8 | 31.1 | 30.9 | 2.02 | 1.328 |
| CC1(C)N([O])C(c2ccc(Cl)cc2)=[N+]([O-])C1(C)C | 63.1 | 63.1 | 58.9 | 58.9 | 74.6 | 74.1 | 2.33 | 1.6 |
| CC1(C)N([O])C(c2ccc(Cl)cc2Cl)=[N+]([O-])C1(C)C | 42.8 | 42.7 | 65 | 64.6 | 78.1 | 77.6 | 1.93 | 1.347 |
| CC1(C)N([O])C(c2ccccc2[N+](=O)[O-])=[N+]([O-])C1(C)C | 47.9 | 47.9 | 60.7 | 60.3 | 74.6 | 74.1 | 0.909 | 0.598 |
| CC1(C)N([O])C(c2ccc(OCC(=O)O)cc2)=[N+]([O-])C1(C)C | 91.2 | 91.2 | 74.6 | 74.1 | 101 | 100 | -0.518 | -0.372 |
| CC1(C)N([O])C(c2cccnc2)=[N+]([O-])C1(C)C |  |  |  |  |  |  | 0.512 | 0.337 |
| Cc1ccc(C2=[N+]([O-])C(C)(C)C(C)(C)N2[O])cc1 | 33.1 | 33.1 | 38.3 | 38 | 65 | 64.6 | 1.9 | 1.309 |
| COc1ccc(C2=[N+]([O-])C(C)(C)C(C)(C)N2[O])cc1 | 30.9 | 30.9 | 42.9 | 42.7 | 59.3 | 58.9 | 1.62 | 1.101 |
| COc1ccc(C2=[N+]([O-])C(C)(C)C(C)(C)N2[O])c(OC)c1 | 9.33 | 9.33 | 25.3 | 25.1 | 27.7 | 27.5 | 0.77 | 0.62 |
| CC1(C)N([O])C(c2ccccc2F)=[N+]([O-])C1(C)C | 44.7 | 44.7 | 76.4 | 75.9 | 85.7 | 85.1 | 0.822 | 0.577 |
| COc1ccc(C2=[N+]([O-])C(C)(C)C(C)(C)N2[O])cc1O | 27.5 | 27.5 | 40.1 | 39.8 | 54.1 | 53.7 | 0.918 | 0.534 |
| CC1(C)N([O])C(c2ccccc2O)=[N+]([O-])C1(C)C | 44.7 | 44.7 | 52.8 | 52.5 | 55.3 | 55 | 1.17 | 0.729 |
| CC1(C)N([O])C(c2ccc(O)cc2)=[N+]([O-])C1(C)C | 39.8 | 39.8 | 48.2 | 47.9 | 56 | 56.2 | 0.619 | 0.483 |
| COc1cc(C2=[N+]([O-])C(C)(C)C(C)(C)N2[O])ccc1O | 25.7 | 25.7 | 32.6 | 32.4 | 42.9 | 42.7 | 1.14 | 0.558 |
| CC1(C)N([O])C(c2ccc([N+](=O)[O-])cc2)=[N+]([O-])C1(C)C | 115 | 115 | 108 | 107 | 167 | 166 | 1.68 | 1.245 |
| COc1ccc(C2=[N+]([O-])C(C)(C)C(C)(C)N2[O])cc1OC | 8.32 | 8.32 | 30.4 | 30.2 | 29.7 | 29.5 | 1.15 | 0.905 |
| CC1(C)N([O])C(c2ccc3c(c2)OCO3)=[N+]([O-])C1(C)C | 19.5 | 19.5 | 29.7 | 29.5 | 47.1 | 46.8 | 1.51 | 1.039 |
| CC1(C)N([O])C(c2ccc(Br)cc2)=[N+]([O-])C1(C)C | 46.8 | 46.8 | 55.3 | 55 | 60.7 | 60.3 | 2.46 | 1.713 |
| CC1(C)N([O])C(c2cccc([N+](=O)[O-])c2)=[N+]([O-])C1(C)C | 87.1 | 87.1 | 62.1 | 61.7 | 63.5 | 63.1 | 1.64 | 1.157 |
| CC1(C)N([O])C(c2cccc(O)c2)=[N+]([O-])C1(C)C | 61.7 | 61.7 | 57.9 | 57.5 | 69.6 | 69.2 | 1.14 | 0.546 |
| CC1(C)N([O])C(c2ccco2)=[N+]([O-])C1(C)C |  |  |  |  |  |  | 0.615 | 0.405 |
| CC1(C)N([O])C(c2ccccc2)=[N+]([O-])C1(C)C | 67.6 | 67.6 | 51.6 | 51.3 | 66.5 | 66.1 | 1.36 | 0.918 |
